Measured values reported in ChEMBL document CHEMBL1127253, “Synthesis and in vitro gastrointestinal motility enhancing activity of 3-aryl-2-imidazolidinylidene propanedinitrile derivatives” (Bioorg Med Chem Lett, 1994).

How the values were obtained:
[1] = molecular target: T1, Acetylcholinesterase (Rattus norvegicus, UniProt P37136); assay: Inhibitory activity against acetylcholinesterase (AChE) from rat brain was determined
T1 sequence (P37136 whole entry): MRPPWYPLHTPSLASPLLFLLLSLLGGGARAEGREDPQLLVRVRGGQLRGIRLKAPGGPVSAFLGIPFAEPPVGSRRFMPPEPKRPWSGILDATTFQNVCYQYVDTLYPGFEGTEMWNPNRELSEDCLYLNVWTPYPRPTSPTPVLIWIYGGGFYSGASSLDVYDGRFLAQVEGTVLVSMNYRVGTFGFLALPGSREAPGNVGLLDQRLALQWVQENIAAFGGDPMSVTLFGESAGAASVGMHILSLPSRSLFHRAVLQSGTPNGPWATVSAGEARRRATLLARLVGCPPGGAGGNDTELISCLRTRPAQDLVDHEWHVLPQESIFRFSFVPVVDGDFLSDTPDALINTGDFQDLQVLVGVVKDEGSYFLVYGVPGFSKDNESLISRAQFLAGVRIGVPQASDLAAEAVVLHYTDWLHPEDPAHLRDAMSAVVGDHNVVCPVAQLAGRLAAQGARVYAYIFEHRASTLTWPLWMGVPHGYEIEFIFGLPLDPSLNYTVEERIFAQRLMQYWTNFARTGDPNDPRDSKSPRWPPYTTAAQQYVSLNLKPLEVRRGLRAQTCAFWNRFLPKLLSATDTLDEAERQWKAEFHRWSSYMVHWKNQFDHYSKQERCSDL

[2] = species on record: Cavia porcellus; assay: In vitro gastrointestinal motility enhancing activity expressed as concentration of compound producing 30% potentiation of contractions induced by electrical stimulation in guinea pig; format: functional

Compound | IC50 [1] [nM] | EC30 [2] [nM]
COc1ccc(N2CCN(CCNCc3ccc(CN4CCCCC4)o3)C2=C(C#N)C#N)cc1 | 19 | 12
N#CC(C#N)=C1N(CCNCc2ccc(CN3CCCCC3)o2)CCN1c1ccccc1 | 14 | 10
COc1cccc(N2CCN(CCNCc3ccc(CN4CCCCC4)o3)C2=C(C#N)C#N)c1 | 14 | 14
COc1ccccc1N1CCN(CCNCc2ccc(CN3CCCCC3)o2)C1=C(C#N)C#N | 66 | 490
Cc1cccc(N2CCN(CCNCc3ccc(CN4CCCCC4)o3)C2=C(C#N)C#N)c1 | 13 | 19
Cc1ccc(N2CCN(CCNCc3ccc(CN4CCCCC4)o3)C2=C(C#N)C#N)cc1 | 2.2 | 52
N#CC(C#N)=C1NCCN1CCNCc1ccc(CN2CCCCC2)o1 | 30 | 16
